According to patent publication US20180339016A1 (priority 2015, published 2018):
Values joined by “and” are separate entries in the source; they are usually repeats but may differ in a detail not shown here. Identical values can stand only once. Like-named read-outs stand apart in the source and are kept apart here.

Experiments:
E. coli [1] = assay: NPN fluorescence, penetration into outer membrane; assay type: cell-based; settings: FIG. 5
Procedure: Penetration into the microbial outer membrane was measured by the fluorescence intensity of NPN-treated E. coli (λex=355 nm, λem=405 nm). An E. coli suspension (8×10^7 cells/mL) was centrifuged at 13000 rpm at 25° C. for 10 minutes, and suspended in 5 mM HEPES buffer (pH 7.2). NPN was added to the E. coli suspension to a final NPN concentration of 5 μM. The fluorescence intensity of the E. coli suspension was measured using the FL-55 fluorometer. The peptide together with 5 μM NPN was added to the E. coli suspension.

E. coli [2] = assay: SYTOX Green membrane penetrability by FACS; assay type: cell-based; settings: FIG. 6
Procedure: In the second experiment, whether the peptides would have the ability to disrupt both the outer wall and inner wall of bacteria was examined. To this end, the fluorescent dye Sytox Green capable of specifically staining DNA was used, and penetrability into the microbial membrane was evaluated from the average fluorescence intensity of E. coli treated with SYTOX Green. An E. coli suspension (2×10^8 cells/mL) was incubated with the three peptides in the presence of SYTOX Green (2.5 μM) for 10 minutes, respectively. Penetrability was quantified by a (fluorescence activated cell sorter (FACS). The average fluorescence intensity of 1×10^4 gate cells was measured. Melittin (control) is a pore-forming peptide that disrupts the microbial cell membrane.

[3] = test system: Escherichia coli (ATCC 25922); settings: peptide alone; peptide concentration required to inhibit growth by 20% (so in the source)
Procedure: (§1) The N-terminus of the peptides were acetylated and the C-terminus was amidated. The kinked structure can rapidly reduce the alpha-helical content, thereby greatly reducing the toxicity of the peptide against host cells. In addition, because of the potential to show specificity for the Gram-negative bacterial membrane, Pro-mutants were prepared by site-directed mutagenesis. Using the prepared peptides, their MIC for the Gram-negative bacterium E. coli and the Gram-positive bacterium S. aureus and their hemolytic activity for host cells were examined (Table 1).
(§2) To measure the synergy between the membrane-activating peptides and the repositioning drug, a 10× compound was prepared, and then serially diluted ⅔-fold with distilled water. An MH broth (900 μl) was added to and mixed with the 10× compound (100 μl), and then 200 μL of the mixture was taken and added to a 96-well plate. E. coli cultured for one day was adjusted to 0.5 MCF using MCFarland, and diluted 10-fold, and then 10 μl of the dilution was added to each well of the plate (5×10^5 CFU/mL). After addition of the bacterial cells, plate was incubated at 37° C. for 18 hours, and then the OD value at UV-Vis (600 nm) was measured. Cell viability (%)=(OD600 of sample−OD600 of negative control)/(OD600 of positive control−OD600 of negative control)×100.

[4] = test system: Staphylococcus aureus (ATCC 29213); assay: MIC of peptide against S. aureus; assay type: cell-based; settings: peptide alone
Procedure: as §1

E. coli ATCC 25922 [5] = assay: Antibiotic interaction assay (Wimley), 2/3 broth microdilution: MIC alone, MIC of combination, FICI; assay type: cell-based; settings: for MIC when the three compounds were used alone: Example 7; for MIC (μM) against E. coli ATCC, combination of two compounds / MIC (μM) against E. coli ATCC, combination of 3 compounds / concentration killing E. coli in combination KL-L9P/colistin/linezolid: concentration of labelled component; for FICI of peptide with colistin: labelled peptide + colistin; for FICI of peptide with linezolid: labelled peptide + linezolid
Procedure: Synergy was evaluated by an antibiotic interaction assay (Wimley, 2015) Using the method of Wimley (BBA, 2015, v. 1848(1), pp. 8-15), synergy between the membrane-activating peptide and an antibiotic was measured by an FICI value (FIG. 17). […] Thus, to accurately examine synergy, a ⅔ dilution method which observes MIC at denser concentration intervals is advantageous over a ½ dilution method in statistical terms. […] In the same manner, the MIC of an antibiotic or repositioning drug (second line) is measured. In the third line, the two compounds are mixed after putting half amount each, and the MIC thereof is measured.
A broth microdilution technique (⅔ dilution) was used together with an MH broth. E. coli treated with an antibiotic and the peptide was incubated in a 37° C. incubator for 18 hours.
as §2

E. coli NDm-1 = assay: Confocal microscopy of TAMRA-conjugated peptide; assay type: cell-based; settings: 2.5 μM peptide, 30 minutes, FIG. 8
Procedure: E. coli NDm-1 was diluted when it reached OD600=0.5. The microorganism was treated with 2.5 μM of the peptide in a 37° C. incubator for 30 minutes. LK-L12P was used as a positive control.

E. coli ATCC 25922 [6] = settings: for MIC (μM) against E. coli ATCC 25922, Peptide alone: bacterial growth <10% of control
E. coli [7] = assay: FACS of TAMRA-labeled peptides entering Gram-negative bacteria; assay type: cell-based
MDA MB231 cells = assay: FACS penetration of eukaryotic cells; assay type: cell-based; settings: 5 microM
Description: (§3) […]. […] […].

Gram-positive bacteria [8] = assay: Entry of peptide into Gram-positive bacteria; assay type: cell-based; settings: data not shown
Description: as §3

Gram-positive bacteria [9] = settings: previously examined peptide; cited from earlier work
[10] = KL-L9P + colistin + (S)-ibuprofen
[11] = KL-L9P + colistin + cloxacillin
[12] = KL-L9P + colistin + simvastatin
[13] = Tables 19-23, read-out: MIC (μM) against E. coli ATCC, 1 compound alone

## CC[C@H](C)[C@H](NC(=O)CN)C(=O)NCC(=O)N[C@@H](C)C(=O)N[C@H](C(=O)N[C@@H](CC(C)C)C(=O)N[C@@H](CCCCN)C(=O)N[C@H](C(=O)N[C@@H](CC(C)C)C(=O)N[C@H](C(=O)N[C@H](C(=O)NCC(=O)N[C@@H](CC(C)C)C(=O)N1CCC[C@H]1C(=O)N[C@@H](C)C(=O)N[C@@H](CC(C)C)C(=O)N[C@H](C(=O)N[C@@H](CO)C(=O)N[C@@H](Cc1c[nH]c2ccccc12)C(=O)N[C@H](C(=O)N[C@@H](CCCCN)C(=O)N[C@@H](CCCNC(=N)N)C(=O)N[C@@H](CCCCN)C(=O)N[C@@H](CCCNC(=N)N)C(=O)N[C@@H](CCC(N)=O)C(=O)N[C@@H](CCC(N)=O)C(N)=O)[C@@H](C)CC)[C@@H](C)CC)[C@@H](C)O)[C@@H](C)O)C(C)C)C(C)C [Melittin]
E. coli [1]
  NPN fluorescence: touching/loosening the outer membrane: high ability to increase NPN fluorescence
E. coli [2]
  SYTOX Green DNA staining: ability to degrade or penetrate the inner wall: have this ability

## KLLKLLKKPLKLLK [KL-L9P]
[3]
  MIC [μM] Against E. coli: 20 µM and 12 µM
[4]
  MIC [μM] Against S. aureus: >40 µM
E. coli ATCC 25922 [5]
  lowering of MIC in combination KL-L9P/colistin/linezolid versus alone: 12 fold
  MIC when the three compounds were used alone: 13 µM
  concentration killing E. coli in combination KL-L9P/colistin/linezolid: 1 µM
  FICI of peptide with colistin: 0.26
  FICI of peptide with linezolid: 0.40
E. coli ATCC 25922 [5]; FIG. 10
  FICI of peptide with resveratrol: 0.2
E. coli ATCC 25922 [5]; KL-L9P + (S)-ibuprofen
  MIC (μM) against E. coli ATCC, combination of two compounds: 2.0 µM
E. coli ATCC 25922 [5]; KL-L9P + cloxacillin
  MIC (μM) against E. coli ATCC, combination of two compounds: 3.0 µM
E. coli ATCC 25922 [5]; [10]
  MIC (μM) against E. coli ATCC, combination of 3 compounds: 1.1 µM
E. coli ATCC 25922 [5]; [11]
  MIC (μM) against E. coli ATCC, combination of 3 compounds: 1.6 µM
E. coli ATCC 25922 [5]; KL-L9P + colistin + curcumin
  MIC (μM) against E. coli ATCC, combination of 3 compounds: 1.1 µM
E. coli ATCC 25922 [5]; KL-L9P + colistin + linezolid
  MIC (μM) against E. coli ATCC, combination of 3 compounds: 1.1 µM
E. coli ATCC 25922 [5]; [12]
  MIC (μM) against E. coli ATCC, combination of 3 compounds: 0.79 µM
E. coli ATCC 25922 [5]; KL-L9P + colistin
  MIC (μM) against E. coli ATCC, combination of two compounds: 2.4 µM
E. coli ATCC 25922 [5]; KL-L9P + curcumin
  MIC (μM) against E. coli ATCC, combination of two compounds: 1.9 µM
E. coli ATCC 25922 [5]; KL-L9P + linezolid
  MIC (μM) against E. coli ATCC, combination of two compounds: 2.6 µM
E. coli ATCC 25922 [5]; KL-L9P + simvastatin
  MIC (μM) against E. coli ATCC, combination of two compounds: 1.3 µM
E. coli ATCC 25922 [5]; [13]
  MIC: 15 µM
E. coli ATCC 25922 [5]; labelled peptide + colistin + linezolid
  FICI of peptide with colistin and linezolid: 0.28
E. coli ATCC 25922 [5]; labelled peptide + simvastatin
  FICI of peptide with simvastatin: 0.18
E. coli ATCC 25922 [5]; peptide concentration in combination with colistin
  MIC of combination (μM): peptide: 2.6 µM
E. coli [1]
  NPN fluorescence: touching/loosening the outer membrane: better effect of loosening the outer membrane than colistin
E. coli [2]
  SYTOX Green DNA staining: ability to degrade or penetrate the inner wall: did not stain DNA
E. coli NDm-1
  confocal image: membrane leakage / distribution of TAMRA-labeled peptide: distributed around the thin peri-cytoplasmic membrane
E. coli ATCC 25922 [6]; Table 4
  MIC (μM) against E. coli ATCC 25922, Peptide alone: 15 µM
E. coli ATCC 25922 [6]; Table 13, Lys-Ala scanning library
  FICI Against E. coli, Colistin & 1/2 MIC peptide: 0.58
E. coli ATCC 25922 [6]; Table 15, Leu-Ala scanning
  FICI Against E. coli, Colistin & 1/2 MIC peptide: 0.74
  FICI Against E. coli, Colistin & 1/4 MIC peptide: 0.55

## LKKLLKLLKKLPKL [LK-L12P]
[3]
  MIC [μM] Against E. coli: 2.5 µM
[4]
  MIC [μM] Against S. aureus: 10 µM
E. coli NDm-1
  confocal image: membrane leakage / distribution of TAMRA-labeled peptide: strongly induced leakage from the inner membrane and the outer membrane

## LKKLLKLPKKLLKL [LK-L8P]
[3]
  MIC [μM] Against E. coli: 10 µM
[4]
  MIC [μM] Against S. aureus: >40 µM
E. coli [7]; TAMRA-labeled, FIG. 1
  extent to which the mutated peptides entered Gram-negative bacteria (order): P>>N=D>Q=E
E. coli [7]; peptide about 2.5 microM
  portion of the peptide that entered Gram-negative bacteria: about 60%
MDA MB231 cells
  penetration of eukaryotic cells: did not penetrate eukaryotic cells
Gram-positive bacteria [8]
  entry into Gram-positive bacteria: did not enter Gram-positive bacteria
E. coli ATCC 25922 [6]; Table 4
  Fractional Inhibitory Concentration Index (FICI), Colistin & 1 μM peptide: 0.83, Synergism
  MIC (μM) against E. coli ATCC 25922, Peptide alone: 3 µM

## RAGLQFPVGRVHRLLRK [buforin 5-20]
[3]
  MIC [μM] Against E. coli: 20 µM
E. coli ATCC 25922 [5]
  FICI of peptide with colistin: 0.5
  FICI of peptide with linezolid: 0.7
Gram-positive bacteria [9]
  activity against Gram-positive bacteria: no activity against Gram-positive bacteria

## colistin
E. coli ATCC 25922 [5]
  lowering of MIC in combination KL-L9P/colistin/linezolid versus alone: 16 fold
  MIC when the three compounds were used alone: 0.8 µM
  concentration killing E. coli in combination KL-L9P/colistin/linezolid: 0.05 µM
E. coli ATCC 25922 [5]; [10]
  MIC (μM) against E. coli ATCC, combination of 3 compounds: 0.08 µM
E. coli ATCC 25922 [5]; [11]
  MIC (μM) against E. coli ATCC, combination of 3 compounds: 0.08 µM
E. coli ATCC 25922 [5]; KL-L9P + colistin + curcumin
  MIC (μM) against E. coli ATCC, combination of 3 compounds: 0.08 µM
E. coli ATCC 25922 [5]; KL-L9P + colistin + linezolid
  MIC (μM) against E. coli ATCC, combination of 3 compounds: 0.06 µM
E. coli ATCC 25922 [5]; [12]
  MIC (μM) against E. coli ATCC, combination of 3 compounds: 0.06 µM
E. coli ATCC 25922 [5]; KL-L9P + colistin
  MIC (μM) against E. coli ATCC, combination of two compounds: 0.17 µM
E. coli ATCC 25922 [5]; [13]
  MIC: 1 µM
E. coli ATCC 25922 [5]; colistin + (S)-ibuprofen
  MIC (μM) against E. coli ATCC, combination of two compounds: 0.55 µM
E. coli ATCC 25922 [5]; colistin + cloxacillin
  MIC (μM) against E. coli ATCC, combination of two compounds: 0.63 µM
E. coli ATCC 25922 [5]; colistin + curcumin
  MIC (μM) against E. coli ATCC, combination of two compounds: 0.30 µM
E. coli ATCC 25922 [5]; colistin + linezolid
  MIC (μM) against E. coli ATCC, combination of two compounds: 0.60 µM
E. coli ATCC 25922 [5]; colistin + simvastatin
  MIC (μM) against E. coli ATCC, combination of two compounds: 0.25 µM
E. coli ATCC 25922 [5]; concentration of KL-L9P in combination with labelled drug
  MIC of combination (μM): KL-L9P: 2.40 µM
E. coli ATCC 25922 [5]; concentration of labelled drug in combination with KL-L9P
  MIC of combination (μM): antibiotic: 0.17 µM
E. coli ATCC 25922 [5]; drug alone, <20% growth of positive control, read-out: MIC of antibiotic
  MIC: 1.63 µM
E. coli ATCC 25922 [5]; labelled drug + KL-L9P
  FICI of drug with KL-L9P: 0.26
  FICIKL-L9P: 0.16
  FICIantibiotic: 0.10
E. coli [1]
  NPN fluorescence: touching/loosening the outer membrane: had the property of touching the outer membrane and entering the outer membrane
E. coli [2]
  SYTOX Green DNA staining: ability to degrade or penetrate the inner wall: easily stained DNA
E. coli ATCC 25922 [6]; Table 4
  MIC (μM) against E. coli ATCC 25922, Colistin alone: 1.25 µM
